In patent US6410328B1, “Sensitizing cells to compounds using lipid-mediated gene and compound delivery” (Protiva Biotherapeutics Inc., priority 1998, dated 2002):

How the values were obtained:
[1] = Plasma clearance and in vivo release of free and liposomal GCV in B16 tumored mice (Example 9); parameters: species or system mouse; settings: 1 hr after single iv dose, 25 mg/kg GCV
Protocol: Large unilamellar vesicles were prepared according to the method of Hope, et al., Biochem. Biophys. Acta. 812:55-65 (1985). 55 mole % sphingomyelin and 45 mole % of cholesterol were dissolved in chloroform with a drop of methanol and approximately 0.035 μCi of ^14C-CHE. Lipids were dried down under a stream of nitrogen gas and the resulting lipid film was then placed under high vacuum for at least 3 hrs. A solution of ganciclovir containing ^3H-GCV was made up in 30% ethanol, 70% HBS (20 mM Hepes, 145 mM NaCl pH 7.45) to 50 or 100 mg/mL depending on the sample size. The lipid to GCV weight ratio was initially 1 to 1. The GCV solution was added to the lipid film. […] The lipid concentration was determined by scintillation counting of ^14C-CHE label. The GCV concentration was determined by counting ^3H-GCV and a Bligh Dyer assay.
Groups of four female C57BL/6 mice per time point were injected subcutaneously with 150,000 B16 tumor cells. […] Circulating levels of lipid and GCV were determined at 15 min, 1, 8, 24 and 48 hrs for the liposomal GCV groups. Levels of GCV were determined at 15 min and 1 hr for the free GCV groups. […] Lipid and GCV levels in the plasma were determined. Lipid and GCV were measured by counting ^14C-CHE and ^3H-GCV. One hundred or 200 μL aliquots of plasma were measured on a Beckman LS3801 scintillation counter.

[2] = Organ biodistribution of free and liposomal GCV in B16 tumored mice (Example 10); assay type: in vivo, mouse
Protocol: (§1) Groups of four female C57BL/6 mice per time point were injected subcutaneously with 150,000 B16 tumor cells. The tumors were grown for 14 days at which time a single iv dose of free GCV or liposomal GCV was given via the lateral tail vein. This dose, given in a total of 200 μL, contained approximately 5.6 mg (10 μmoles) lipid and 0.5 mg (1.96 μmoles) GCV resulting in lipid and GCV doses of 300 mg/kg and 25 mg/kg, respectively. Circulating levels of lipid and GCV were determined at 15 min, 1, 8, 24 and 48 hrs for the liposomal GCV groups. Levels of GCV were determined at 15 min and 1 hr for the free GCV groups. At each time point, animals were anesthetized with ketamine/xylazine and blood was collected via cardiac puncture. Blood was put into EDTA coated microtainers and spun at 500 g for 10 min in order to pellet blood cells and obtain plasma. Lipid and GCV levels in the plasma were determined. Lipid and GCV were measured by counting ^14C-CHE and ^3H-GCV. One hundred or 200 μL aliquots of plasma were measured on a Beckman LS3801 scintillation counter.
Biodistribution data was collected from those mice that were in the pharmacokinetic studies. Following heart puncture, mice were terminated by cervical dislocation. Tissues were harvested from each animal and weighed. Saline was added to each organ prior to homogenization by either a Polytron homogenizer (livers) or a Fast Prep® machine. Tissues were solubilized in Solvable for 3 to 16 hr at 50° C. The samples were then cooled to room temperature before defoaming and decolourizing with EDTA and hydrogen peroxide respectively. Picofluorscintillation fluid was added to the samples prior to counting on the scintillation counter.

in vivo = settings: female, C57BL/6, mouse, iv, 25 mg/kg
Protocol: as §1, with “counter. […]” for “counter.”
Tumor bearing mice were treated intravenously with 25 mg/kg of free or liposomal GCV. Lipid and GCV were quantified using ^14C-CHE and ^3H-GCV labels. […] Free ganciclovir is rapidly cleared from the tumor, with only 1.1+/−0.1 % of the total injected dose per gram of tumor detected at 1 hr. […]

[3] = tested on: B16 murine melanoma cells stably transfected with HSV-TK; test: Efficacy of liposomal ganciclovir in the B16TK tumor model (Example 11); assay type: in vivo, mouse; settings: day 18; 25 mg/kg ganciclovir every other day from day five, six injections
Protocol: FIG. 13 illustrates efficacy of liposomal ganciclovir in the B16TK tumor model. Female C57BL/6 mice were seeded subcutaneously in the hind flank with 150,000 B16 murine melanoma cells stably transfected with HSV-TK. Five days later, tumor measurement began. Starting on day five, mice were treated with liposomal or free GCV (25 mg/kg ganciclovir) or HBS (Hepes Buffered Saline) every other day for a total of six injections. Measurements at day 18 indicate that tumors in the control mice are 5-fold larger than those of the treated groups. Tumor volume was determined by measuring tumor in three dimensions with calipers.
Groups of 4 or 5 female C57BL/6 mice were injected intradermally with B16 cells stably transfected with HSV-TK. Once tumors were measurable (day 5), the mice were injected intravenously with liposomal GCV (25 mg/kg GCV). Injections were continued every other day for 6 injections. Tumor measurements were typically taken every other day.

Nc1nc(O)c2ncn(COC(CO)CO)c2n1 [free GCV, ganciclovir]
injected dose remaining in circulation [1]: 0.4 % of the injected dose | GCV content of organs assayed (liver, lungs, spleen, kidneys) ([2]; 15 min and 1 hr, except kidneys at 15 min): essentially absent | GCV found in the kidneys ([2]; 15 minute time point): 3.5+/−1.8 % of the total injected dose | GCV found in the liver ([2]; 15 minutes after administration): 3.1+/−0.1 % of the initial injected dose | GCV in the spleen ([2]; 1 hr (peak for liposomal GCV)): 0.04+/−0.02 % of the total injected dose | tissue uptake at 1 h (in vivo): 1.1 %ID/g | tumor size in control HBS-treated mice relative to treated groups [3]: 5 fold
